From patent US20250257034A1, “INDOLE DERIVATIVES AS SEROTONERGIC AGENTS USEFUL FOR THE TREATMENT OF DISORDERS RELATED THERETO” (priority 2023, published 2025)
Read-outs that look alike come from different tables or passages of the source.

Tests used:
Type in all cases: cell-based
5-HT2B receptor [1] = target: T1, 5-HT2B receptor (Homo sapiens, UniProt P41595); experiment: h-5HT2B FLIPR calcium mobilization assay in HEK293 cells; parameters: expressed in transfected cells; host or cells: HEK293, stably transfected
Experimental: Compound potency (EC50) and efficacy (Max response) against the human 5-HT2B receptor in stably transfected HEK293 cells was determined in a calcium mobilization-based assay.
Cells were seeded in a total volume of 20 μL into white walled, 384-well microplates and incubated at 37° C. overnight. Prior to testing, cell plating media was exchanged with 20 μL of Dye Loading buffer (HBSS+20 mM HEPES containing 1×Dye, 1×Additive A and 2.5 mM Probenecid). Plates were incubated at 37° C. for 45 mins followed by 15 mins at room temperature.
(§1) 10 μl of assay buffer (HBSS+20 mM HEPES) was added to cells. Intermediate dilution of sample stocks was performed to generate 4×sample in assay buffer. Assay plates, compound plates were loaded into F LIP R instrument. 10 μL of sample was added using F LIP R onboard robotics after 5 seconds of starting calcium measurement. Final assay vehicle concentration was 1%. The results are expressed as a percent efficacy relative to the maximum response of the control ligand (serotonin) in Table 28.
as §1, with “57.” for “28.”

5-HT2B receptor [2] = target: T1, 5-HT2B receptor; experiment: h-5HT2B positive allosteric modulator (PAM) assay in HEK293 cells; parameters: expressed in transfected cells; host or cells: HEK293, stably transfected; conditions: for Emax (% of serotonin): PAM mode
Experimental: Compound potency (EC50) and efficacy (Max response) against the human 5-HT2B receptor in stably transfected HEK293 cells was determined in a GPC R cell-based assay.
(§2) For Positive Allosteric Modulator determination, cells were pre-incubated with sample followed by EC20 addition. Intermediate dilution of sample stocks was performed to generate 5×sample in assay buffer. 5 μL of 5×sample was added to cells and incubated at 37° C. for 10 minutes. 5 μL of agonist at 6×EC20 concentration was added and cells were incubated at 37° C. for 120 minutes. Final assay vehicle concentration was 1%. The results are expressed as a percent efficacy relative to the maximum response of the control ligand (serotonin) in Table 29.
as §2, with “58.” for “29.”

human 5-HT2A receptor = human 5-HT2A receptor (Homo sapiens, UniProt P28223); experiment: h-5HT2A β-arrestin reporter assay in U2OS cells; parameters: expressed in transfected cells
Experimental: (§3) Compound potency (EC50) and efficacy (Max response) against the human 5-HT2A receptor in stably transfected U2OS cells was determined in a G protein-coupled receptors (GPCR) cell based p-arrestin reporter assay. Cells were seeded in a total volume of 20 μL into white walled, 384-well microplates and incubated at 37° C. overnight before analysis. For agonist determination, cells were incubated with sample to induce response. Intermediate dilution of sample stocks was performed to generate 5×sample in assay buffer. 5 μL of 5×sample was added to cells and incubated at 37° C. for 120 minutes. Final assay vehicle concentration was 1%.
as §3, with “5-HT2Areceptor” for “5-HT2A receptor”, “GPCR” for “G protein-coupled receptors (GPCR)”, “P-arrestin” for “p-arrestin”

human 5-HT1A receptor = target: T2, human 5-HT1A receptor (Homo sapiens, UniProt P08908); experiment: Human 5HT1A cAMP assay in CHO-K1 cells; parameters: expressed in transfected cells
T2 sequence (P08908 1-422): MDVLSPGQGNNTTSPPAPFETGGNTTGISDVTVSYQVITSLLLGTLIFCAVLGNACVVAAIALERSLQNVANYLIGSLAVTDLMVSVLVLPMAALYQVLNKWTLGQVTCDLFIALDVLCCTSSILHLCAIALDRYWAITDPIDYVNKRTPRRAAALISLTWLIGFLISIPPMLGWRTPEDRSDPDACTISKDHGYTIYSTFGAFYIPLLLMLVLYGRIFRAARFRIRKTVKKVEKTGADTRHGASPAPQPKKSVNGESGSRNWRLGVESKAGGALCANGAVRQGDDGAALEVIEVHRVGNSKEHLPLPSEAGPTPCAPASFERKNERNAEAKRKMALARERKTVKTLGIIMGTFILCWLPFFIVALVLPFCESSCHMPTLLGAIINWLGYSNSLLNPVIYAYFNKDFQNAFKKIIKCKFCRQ
Experimental: Compound potency (EC50) and efficacy (Max response) against the human 5-HT1A receptor in stably transfected CHO-K1 cells was determined in a GPCR cell-based cAMP assay.
(§4) Cells were seeded in a total volume of 20 μL into white walled, 384-well microplates and incubated at 37° C. overnight before analysis. Prior to testing, cell plating media was exchanged with 10 μL of Assay buffer (HBSS+10 mM HE P E S). Briefly, intermediate dilution of sample stocks was performed to generate 4×sample in assay buffer. 5 μL of 4×sample+5 μL of 4×forskolin was added to cells and incubated at 37° C. for 30 minutes. Final assay vehicle concentration was 1%. The results are expressed as a percent efficacy relative to the maximum response of the control ligand (serotonin) in Table 27.
as §4, with “HEPES).” for “HE P E S).”, “4×sample +5” for “4×sample+5”, “56.” for “27.”

[3] = β-arrestin reporter, U2OS cells
[4] = relative to maximum response of serotonin (Table 56)
[5] = relative to maximum response of serotonin (Table 28)
[6] = relative to maximum response of serotonin (Table 29)
[7] = relative to maximum response of control ligand serotonin
[8] = relative to maximum response of serotonin (Table 27)

T1 sequence (P41595 whole entry): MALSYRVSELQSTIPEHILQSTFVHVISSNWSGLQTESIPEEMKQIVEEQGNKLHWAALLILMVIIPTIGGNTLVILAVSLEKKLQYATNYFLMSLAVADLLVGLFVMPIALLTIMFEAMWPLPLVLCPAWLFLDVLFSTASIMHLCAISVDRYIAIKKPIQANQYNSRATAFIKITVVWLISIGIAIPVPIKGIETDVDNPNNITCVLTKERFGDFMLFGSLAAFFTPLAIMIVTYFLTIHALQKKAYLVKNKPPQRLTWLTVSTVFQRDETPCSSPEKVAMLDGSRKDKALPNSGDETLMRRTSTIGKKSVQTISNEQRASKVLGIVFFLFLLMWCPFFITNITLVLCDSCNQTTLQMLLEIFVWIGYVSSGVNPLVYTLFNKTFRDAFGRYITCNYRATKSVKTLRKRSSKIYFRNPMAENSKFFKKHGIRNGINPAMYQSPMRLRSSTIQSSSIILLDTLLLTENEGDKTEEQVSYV
human 5-HT2A receptor, sequence (P28223 whole entry): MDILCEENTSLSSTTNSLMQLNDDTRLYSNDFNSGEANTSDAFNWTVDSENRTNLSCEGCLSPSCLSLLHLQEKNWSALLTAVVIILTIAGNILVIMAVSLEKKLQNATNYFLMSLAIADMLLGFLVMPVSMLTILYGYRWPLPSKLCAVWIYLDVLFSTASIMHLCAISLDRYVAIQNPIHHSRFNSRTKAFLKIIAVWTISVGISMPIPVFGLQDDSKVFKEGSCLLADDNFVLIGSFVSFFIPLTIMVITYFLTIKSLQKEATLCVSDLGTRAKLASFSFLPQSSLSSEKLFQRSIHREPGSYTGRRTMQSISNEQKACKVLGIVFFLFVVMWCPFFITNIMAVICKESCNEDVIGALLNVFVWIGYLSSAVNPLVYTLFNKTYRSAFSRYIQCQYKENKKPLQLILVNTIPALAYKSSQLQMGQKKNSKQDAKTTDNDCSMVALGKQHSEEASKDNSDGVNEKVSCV

Structure (SMILES)	EC50 (5-HT2B receptor [1])	Emax (% of serotonin) (5-HT2B receptor [1]; relative to maximum response of serotonin (Table 57))	EC50 (5-HT2B receptor [2])	Emax (% of serotonin) (5-HT2B receptor [2]; HEK293 cells, relative to max response of serotonin)	EC50 (human 5-HT2A receptor)	Emax (% of serotonin) (human 5-HT2A receptor; [3])	EC50 (human 5-HT1A receptor)	Emax (% of serotonin) (human 5-HT1A receptor; [4])	Emax (% of serotonin) (5-HT2B receptor [1]; [5])	Emax (% of serotonin) (5-HT2B receptor [2]; [6])	Emax (% of serotonin) (human 5-HT2A receptor; [7])	Emax (% of serotonin) (human 5-HT1A receptor; [8])	EC50 (human 5-HT2A receptor; β-arrestin reporter, U2OS cells, 120 min, read-out: EC50)	EC50 (human 5-HT2A receptor; β-arrestin reporter, U2OS cells, read-out: EC50)
COc1ccc2[nH]cc(CCN3CC[C@H](OC(F)F)C3)c2c1 [(S) I-67, (S)-3-(2-(3-(Difluoromethoxy)pyrrolidin-1-yl)ethyl)-5-methoxy-1H-indole]	> 10 µM	4.23 % of serotonin	> 10 µM	0 % of serotonin	2.07 µM	38.02 % of serotonin	0.0116 µM	98.47 % of serotonin	–	–	–	–	–	–
[2H]C([2H])([2H])N(CCc1c[nH]c2ccc(SC)cc12)C([2H])([2H])[2H] [Compound I-1, N,N-Bis(methyl-d3)-2-(5-(methylthio)-1H-indol-3-yl)ethan-1-amine]	> 10 µM	–	> 10 µM	–	0.0584 µM	–	0.0111 µM	–	19.8 % of serotonin	0 % of serotonin	74 % of serotonin	96.18 % of serotonin	–	–
CCN(C)CCc1c[nH]c2ccc(SC)cc12 [Compound I-13, N-Ethyl-N-methyl-2-(5-(methylthio)-1H-indol-3-yl)ethan-1-amine]	> 10 µM	–	> 10 µM	–	0.0595 µM	–	0.00906 µM	–	21.04 % of serotonin	0 % of serotonin	75.27 % of serotonin	100.52 % of serotonin	–	–
CN(C)CCc1c[nH]c2ccccc12 [DMT]	–	–	–	–	–	38.86 % of serotonin	–	87.1 % of serotonin	–	–	38.86 % of serotonin	87.1 % of serotonin	0.114 µM	0.114 µM
